{
  "source": "patent US20230077290A1",
  "about": "“HEAVY METAL-FREE CALCIUM HYDROXIDE-BASED ACTIVE SUBSTANCE” (KALKFABRIK NETSTAL AG, priority 2016, published 2023)",
  "key": {"[1]": {"details": "known compounds with very high capacity; cited from earlier work"}, "Plasmopara viticola": {"tested_on": "Plasmopara viticola", "assay": "Tests against Plasmopara viticola on grapes, dust application before inoculation", "format": "in vivo, Plasmopara viticola on Chasselas grapes", "details": "for % leaf surface with symptoms of infection: average +/- standard deviation; for effect on Plasmopara viticola infection, in words: grapes, dust application, positive control Kocide Opti 0.003%", "experimental": "Tests Against Plasmopara Viticola on Grapes The above-describe samples were tested in an independent plant research institute. The tests were set up as blind tests parallel to the following controls presented below. Study Design: […] For inoculation, the abaxial side of the fully developed leaves of Plasmopara viticola (50,000 spores/mL) were sprayed, and the entire plant was inoculated. Two types of all of the tests were performed: […] Dust application on the dry test plant before inoculation with the pathogen (so-called standard method) […] Dust application on a wet test plant before inoculation with the pathogen. […] Portion of infected leaf surface in percent of the overall leaf surface. The combined “efficacy severity” was then calculated from this in percent. Controls: […]"}, "[2]": {"details": "Type 1 (dry), study of examples 1 and 2"}, "[3]": {"details": "Type 2 (wet), study of examples 1 and 2"}, "[4]": {"details": "Type 1 (dry), study of examples 3 and 4"}, "[5]": {"details": "Type 2 (wet), study of examples 3 and 4"}},
  "data": [
    {"compound": "N", "note": "[NH3]", "values": [
      {"measurement": "acid neutralization capacity bH+", "setting": "[1]", "result": 59, "unit": "mol/kg"}
    ]},
    {"compound": "O=C([O-])[O-].[Li+].[Li+]", "note": "[Li2CO3]", "values": [
      {"measurement": "acid neutralization capacity bH+", "setting": "[1]", "result": 27, "unit": "mol/kg"}
    ]},
    {"compound": "[Ca+2].[OH-].[OH-]", "note": "[Example 2, Calcium hydroxide]", "values": [
      {"measurement": "% leaf surface with symptoms of infection", "setting": "Plasmopara viticola; Type 1 (dry) dust application on dry plant, study of examples 1 and 2", "result": "50 +/− 22%"},
      {"measurement": "% infected leaves", "setting": "Plasmopara viticola; [2]", "result": "89 +/− 17%"},
      {"measurement": "Efficacy severity", "setting": "Plasmopara viticola; [2]", "result": 46.8, "unit": "%"},
      {"measurement": "% leaf surface with symptoms of infection", "setting": "Plasmopara viticola; Type 2 (wet) dust application on wet plant, study of examples 1 and 2", "result": "59 +/− 22%"},
      {"measurement": "% infected leaves", "setting": "Plasmopara viticola; [3]", "result": "93 +/− 10%"},
      {"measurement": "Efficacy severity", "setting": "Plasmopara viticola; [3]", "result": 36.4, "unit": "%"},
      {"measurement": "effect on Plasmopara viticola infection, in words", "setting": "Plasmopara viticola", "result": "only a slight reduction of the infection"}
    ]},
    {"compound": "[Na+].[OH-]", "note": "[NaOH]", "values": [
      {"measurement": "acid neutralization capacity bH+", "setting": "[1]", "result": 25, "unit": "mol/kg"}
    ]},
    {"compound": "Calcium stearate [Example 4]", "values": [
      {"measurement": "Efficacy severity", "setting": "Plasmopara viticola; [4]", "result": 7.3, "unit": "%"},
      {"measurement": "% leaf surface with symptoms of infection", "setting": "Plasmopara viticola; [4]", "result": "62 +/− 20%"},
      {"measurement": "% infected leaves", "setting": "Plasmopara viticola; Type 1 (wet) as printed, study of examples 3 and 4", "result": "93 +/− 10%"},
      {"measurement": "% infected leaves", "setting": "Plasmopara viticola; [5]", "result": "91 +/− 10%"},
      {"measurement": "Efficacy severity", "setting": "Plasmopara viticola; [5]", "result": 13.3, "unit": "%"},
      {"measurement": "% leaf surface with symptoms of infection", "setting": "Plasmopara viticola; [5]", "result": "58 +/− 8%"},
      {"measurement": "effect on Plasmopara viticola infection, in words", "setting": "Plasmopara viticola", "result": "inactive"}
    ]}
  ]
}
